Measured values published in US20120122820A1, “PRODRUGS AND THE USE THEREOF” (Bayer Schering Pharma Aktiengesellschaft, priority 2007, published 2012).
In brackets after ≈: the same amount, converted by molar mass. Counter-ions that a name gives are not always drawn.

Legend:
[1] = tested on: heart rate of anesthetized rats; experiment: Influence on the heart rate of anesthetized rats; type: in vivo; conditions: maximum decrease in the first 30 min after i.v. bolus of 100 μg/kg of (A) or equivalent dosages; anesthetized male Wistar rats
Protocol: Male Wistar rats with a body weight above 250 g are employed. In the night before the experiment, the animals receive no feed but still have free access to drinking water. Preparation and investigations are carried out under Trapanal® anesthesia (100 mg/kg i.p.). Injection and infusion take place through a catheter in the jugular vein, and the blood pressure is recorded via a catheter in the femoral artery (transducer: Braun, Melsungen). After the preparation, the animals are connected to a continuous infusion of physiological saline solution to compensate fluid losses. Test substance or placebo solution are administered intravenously as bolus after an equilibration time of about 1 h. Heart rate and arterial blood pressure are recorded during the equilibration and over a period of at least 30 min after the bolus injection with the aid of a digital evaluation program.
Table 5 lists the maximum heart rate decrease in the first 30 min after an i.v. bolus of 100 μg/kg of the active substance (A) or of equivalent dosages of representative exemplary embodiments: […]

[2] = Stability in buffer at various pH values; type: physicochemical
Protocol: 0.3 mg of the test substance is weighed into a 2 ml HPLC vial and 0.5 ml of acetonitrile or acetonitrile/DMSO (9:1) is added. The substance is dissolved by putting the sample vessel in an ultrasonic bath for about 10 seconds. Then 0.5 ml of the respective (buffer) solution is added, and the sample is again treated in the ultrasonic bath.
• pH 4: 1 liter of Millipore water is adjusted to pH 4.0 with 1 N hydrochloric acid; • pH 5: 0.096 mol of citric acid and 0.2 mol of sodium hydroxide ad 1 liter of water; • pH 7.4: 90.0 g of sodium chloride, 13.61 g of potassium dihydrogen phosphate and 83.35 g of 1 N sodium hydroxide solution are made up to 1 liter with water; this solution is then further diluted 1:10 with Millipore water. • pH 8: 0.013 mol of borax and 0.021 mol of hydrochloric acid ad 1 liter of water.
5 μl portions of the sample solution are analyzed by HPLC for their content of unchanged test substance, and of parent substance (A) produced, every hour over a period of 24 hours at 37° C. The percentage areas of the appropriate peaks are used for quantification.
HPLC method for Examples 1-21:
Agilent 1100 with DAD (G1314A), binary pump (G1312A), autosampler (G1329A), column oven (G1316A), thermostat (G1330A); column: Kromasil 100 C18, 60 mm×2.1 mm, 3.5 μm; column temperature: 30° C.; eluent A: water+5 ml of perchloric acid/liter, eluent B: acetonitrile; gradient: 0-1.0 min 98% A, 2% B; 1.0-9.0 min 2% A, 98% B; 9.0-13.0 min 2% A, 98% B; 13.0-13.5 min 98% A, 2% B; 13.5-15.0 min 98% A, 2% B; flow rate: 0.75 ml/min; UV detection: 210 nm.
HPLC method for Examples 22-40:
The ratios of the peak areas (F) at the respective time points in relation to the peak areas at the starting time are shown in Table 3 for representative exemplary embodiments: […]

[3] = i.v. pharmacokinetics in Wistar rats; type: in vivo; conditions: after i.v. bolus administration, male Wistar rats
Protocol: (§1) On the day before administration of the substance, a catheter for obtaining blood is implanted in the jugular vein of the experimental animals (male Wistar rats, body weight 200-250 g) under Isofluran® anesthesia.
(§2) On the day of the experiment, a defined dose of the test substance is administered as solution into the tail vein using a Hamilton® glass syringe (bolus administration, duration of administration <10 s). Blood samples (8-12 time points) are taken through the catheter sequentially over the course of 24 h after administration of the substance. Plasma is obtained by centrifuging the samples in heparinized tubes. Acetonitrile is added to a defined plasma volume per time point to precipitate proteins. After centrifugation, test substance and, where appropriate, known cleavage products of the test substance in the supernatant are determined quantitatively using a suitable LC/MS-MS method.
The measured plasma concentrations are used to calculate pharmacokinetic parameters of the test substance and of the active ingredient compound (A) liberated therefrom, such as AUC, Cmax, T1/2 (half-life) and CL (clearance).

[4] = Oral pharmacokinetics in Wistar rats; type: in vivo; conditions: after oral administration (gavage), male Wistar rats
Protocol: as §1
as §2, with “stomach by gavage.” for “tail vein using a Hamilton® glass syringe (bolus administration, duration of administration <10 s).”
The measured plasma concentrations are used to calculate pharmacokinetic parameters of the test substance and of the active ingredient compound (A) liberated therefrom, such as AUC, Cmax, T1/2 (half-life).

[5] = Determination of the solubility (24 h shaking at room temperature, ultracentrifugation, HPLC); type: physicochemical; conditions: thermodynamic from solid
Protocol: The test substance is suspended in water or dilute hydrochloric acid (pH 4) [Examples 1-21] or in 5% strength aqueous dextrose solution [Examples 22-40]. This suspension is shaken at room temperature for 24 h. After ultracentrifugation at 224 000 g for 30 min, the supernatant is diluted with DMSO and analyzed by HPLC. A two-point calibration plot of the test compound in DMSO is used for quantification.
Agilent 1100 with DAD (G1315A), quat. pump (G1311A), autosampler CTC HTS PAL, degasser (G1322A) and column thermostat (G1316A); column: Phenomenex Gemini C18, 5 μm, 50 mm×2 mm; temperature: 40° C.; eluent A: water/phosphoric acid pH 2, eluent B: acetonitrile; flow rate: 0.7 ml/min; gradient: 0-0.5 min 85% A, 15% B; ramp 0.5-3 min 10% A, 90% B; 3-3.5 min 10% A, 90% B; ramp 3.5-4 min 85% A, 15% B; 4-5 min 85% A, 15% B.
Agilent 1100 with DAD (G1315A), quat. pump (G1311A), autosampler CTC HTS PAL, degasser (G1322A) and column thermostat (G1316A); column: VDSoptilab Kromasil 100 C18, 3.5 μm, 60 mm×2.1 mm; temperature: 30° C.; eluent A: water+5 ml of perchloric acid/liter, eluent B: acetonitrile; flow rate: 0.75 ml/min; gradient: 0-0.5 min 98% A, 2% B; ramp 0.5-4.5 min 10% A, 90% B; 4.5-6 min 10% A, 90% B; ramp 6.5-6.7 min 98% A, 2% B; 6.7-7.5 min 98% A, 2% B.

[6] = aqueous buffer, dilute hydrochloric acid (pH 4)
[7] = saline or isotonic, 5% strength aqueous dextrose solution

% test substance after 4 h [F(t = 4 h) × 100/F(t = 0 h)] ([2]; pH 4, 37° C.) [%]	% test substance after 24 h [F(t = 24 h) × 100/F(t = 0 h)] ([2]; pH 4, 37° C.) [%]	% test substance after 4 h [F(t = 4 h) × 100/F(t = 0 h)] ([2]; pH 8, 37° C.) [%]	% test substance after 24 h [F(t = 24 h) × 100/F(t = 0 h)] ([2]; pH 8, 37° C.) [%]	solubility at 24 h [5, 6] [µg/mL]	solubility at 24 h [5, 7] [µg/mL]	% test substance after 4 h [F(t = 4 h) × 100/F(t = 0 h)] ([2]; pH 7.4, 37° C.) [%]	% test substance after 24 h [F(t = 24 h) × 100/F(t = 0 h)] ([2]; pH 7.4, 37° C.) [%]	Structure (SMILES)	Heart rate decrease [1] [%]	Detectability of the test substance (prodrug) in plasma [3]	Detectability of the test substance (prodrug) in plasma [4]
100	100	94	68					N#Cc1c(N)nc(SCc2csc(-c3ccc(Cl)cc3)n2)c(C#N)c1-c1ccc(OCCOC(=O)CN)cc1 [Example 5, 2-{4-[2-Amino-6-({[2-(4-chlorophenyl)-1,3-thiazol-4-yl]methyl}thio)-3,5-dicyanopyridin-4-yl]-phenoxy}ethyl glycinate]	21	no longer detectable in plasma even at the first measurement point	no longer detectable in plasma even at the first measurement point
93	91	90	76	240 (≈ 397 µM)				CN(C)CC(=O)OCCOc1ccc(-c2c(C#N)c(N)nc(SCc3csc(-c4ccc(Cl)cc4)n3)c2C#N)cc1 [Example 15, 2-{4-[2-Amino-6-({[2-(4-chlorophenyl)-1,3-thiazol-4-yl]methyl}thio)-3,5-dicyanopyridin-4-yl]-phenoxy}ethyl (N,N-dimethyl)glycinate]	21	no longer detectable in plasma even at the first measurement point	no longer detectable in plasma even at the first measurement point

More lines, now with the values behind:

Structure (SMILES)	% test substance after 4 h [F(t = 4 h) × 100/F(t = 0 h)] ([2]; pH 4, 37° C.) [%]	% test substance after 24 h [F(t = 24 h) × 100/F(t = 0 h)] ([2]; pH 4, 37° C.) [%]	% test substance after 4 h [F(t = 4 h) × 100/F(t = 0 h)] ([2]; pH 8, 37° C.) [%]	% test substance after 24 h [F(t = 24 h) × 100/F(t = 0 h)] ([2]; pH 8, 37° C.) [%]	solubility at 24 h [5, 6] [µg/mL]	solubility at 24 h [5, 7] [µg/mL]	% test substance after 4 h [F(t = 4 h) × 100/F(t = 0 h)] ([2]; pH 7.4, 37° C.) [%]	% test substance after 24 h [F(t = 24 h) × 100/F(t = 0 h)] ([2]; pH 7.4, 37° C.) [%]	Heart rate decrease [1] [%]	Detectability of the test substance (prodrug) in plasma [3]	Detectability of the test substance (prodrug) in plasma [4]
N#Cc1c(N)nc(SCc2csc(-c3ccc(Cl)cc3)n2)c(C#N)c1-c1ccc(OCCOP(=O)(O)O)cc1 [Example 1, 2-{4-[2-Amino-6-({[2-(4-chlorophenyl)-1,3-thiazol-4-yl]methyl}thio)-3,5-dicyanopyridin-4-yl]-phenoxy}ethyl dihydrogenphosphate]	100	100	100	100					16	no longer detectable in plasma even at the first measurement point	
N#Cc1c(N)nc(SCc2csc(-c3ccc(Cl)cc3)n2)c(C#N)c1-c1ccc(OCCOC(=O)CCC(=O)O)cc1 [Example 19, 4-(2-{4-[2-Amino-6-({[2-(4-chlorophenyl)-1,3-thiazol-4-yl]methyl}thio)-3,5-dicyanopyridin-4-yl]-phenoxy}ethoxy)-4-oxobutanoic acid hydrochloride]					57				18		no longer detectable in plasma even at the first measurement point
N#Cc1c(N)nc(SCc2csc(-c3ccc(Cl)cc3)n2)c(C#N)c1-c1ccc(OCCOC(=O)[C@@H](N)CCCN)cc1 [Example 22, 2-{4-[2-Amino-6-({[2-(4-chlorophenyl)-1,3-thiazol-4-yl]methyl}thio)-3,5-dicyanopyridin-4-yl]-phenoxy}ethyl L-ornithinate dihydrochloride]	100	100				> 500	0	0	13	no longer detectable in plasma even at the first measurement point	no longer detectable in plasma even at the first measurement point
N#Cc1c(N)nc(SCc2csc(-c3ccc(Cl)cc3)n2)c(C#N)c1-c1ccc(OCCO)cc1 [compound (A), 2-amino-6-({[2-(4-chlorophenyl)-1,3-thiazol-4-yl]methyl}thio)-4-[4-(2-hydroxy-ethoxy)phenyl]pyridine-3,5-dicarbonitrile, reference compound]					< 1	< 0.1			24		
